{"source": "ChEMBL document CHEMBL1221210", "about": "“A Cdc7 kinase inhibitor restricts initiation of DNA replication and has antitumor activity” (Nat Chem Biol, 2008)", "key": {"[1]": {"assay": "Induction of cell cycle arrest in p53 deficient human A2780/E6 cells as accumulation at subG1 phase at 5 uM after 24hrs by FACS analysis", "assay_type": "functional"}, "[2]": {"test_system": "NHDF", "assay": "Induction of cell cycle arrest in thymidine deficient NHDF assessed as DNA synthesis in S-phase at 5 uM after 16hrs FACS analysis in presence of serum", "assay_type": "cell-based", "settings": "human; call rule not given here"}, "[3]": {"test_system": "Mus musculus", "assay": "AUC in SCID mouse carrying human HL60 cells at 20 mg/kg, iv after 10 hrs", "assay_type": "ADME, organism-based, HL-60", "design": "time < 10 hr, dose 20 mg/kg, route intravenous", "settings": "in vivo"}, "[4]": {"assay": "Induction of cell cycle arrest in p53 deficient human A2780/E6 cells assessed as residual DNA synthesis at 10 uM after 24 hrs by FACS analysis", "assay_type": "functional"}, "[5]": {"test_system": "HeLa", "assay": "Inhibition of DNA synthesis in human HeLa cells assessed as Brd-U uptake at 5 uM by FACS analysis", "assay_type": "functional", "design": "scale not given: the % may be the effect or the level left"}, "[6]": {"test_system": "HCT-15", "assay": "Induction of cell cycle arrest in human HCT15 cells expressing p53 gene assessed as accumulation at subG1 phase at 10 uM after 24 hrs by FACS analysis", "assay_type": "functional"}, "[7]": {"test_system": "SF-268", "assay": "Induction of cell cycle arrest in p53 deficient human SF268 cells assessed as accumulation at subG1 phase at 5 uM after 24 hrs FACS analysis", "assay_type": "functional"}, "[8]": {"test_system": "NHDF", "assay": "Induction of cell cycle arrest in NHDF assessed as accumulation at subG1 phase at 5 uM after 24hrs by propidium-iodine staining based FACS analysis", "settings": "human"}, "[9]": {"test_system": "U2OS", "assay": "Induction of cell cycle arrest in human U2OS cells expressing p53 gene assessed as residual DNA synthesis at 5 uM after 24 hrs by FACS analysis", "assay_type": "functional"}, "[10]": {"test_system": "PC-3", "assay": "Induction of cell cycle arrest in human PC3 cells expressing p53 gene assessed as accumulation at subG1 phase at 5 uM after 24hrs by FACS analysis", "assay_type": "functional"}, "[11]": {"test_system": "HeLa", "assay": "Induction of cell cycle arrest in p53 deficient human HeLa cells assessed as residual DNA synthesis at 5 uM after 24hrs by FACS analysis", "assay_type": "functional"}, "[12]": {"test_system": "SW480", "assay": "Induction of cell cycle arrest in p53 deficient human SW480 cells assessed as residual DNA synthesis at 10 uM after 24 hrs by FACS analysis", "assay_type": "functional"}, "[13]": {"test_system": "COLO 205", "assay": "Induction of cell cycle arrest in p53 deficient human COLO205 cells assessed as accumulation at subG1 phase at 5 uM after 24hrs by FACS analysis", "assay_type": "functional"}, "[14]": {"test_system": "COLO 205", "assay": "Induction of cell cycle arrest in p53 deficient human COLO205 cells assessed as residual DNA synthesis at 10 uM after 24 hrs by FACS analysis", "assay_type": "functional"}, "[15]": {"test_system": "Mus musculus", "assay": "AUC in SCID mouse carrying human HL60 cells at 30 mg/kg, iv after 10 hrs", "assay_type": "ADME, organism-based, HL-60", "design": "time < 10 hr, dose 30 mg/kg, route intravenous", "settings": "in vivo"}, "[16]": {"assay": "Induction of cell cycle arrest in p53 deficient human HCT116-E6 cells assessed as residual DNA synthesis at 5 uM after 24 hrs by FACS analysis", "assay_type": "functional"}, "[17]": {"test_system": "HCT-15", "assay": "Antiproliferative activity against human HCT15 cells expressing p53 gene after 72 hrs by proliferative assay", "assay_type": "functional, cell-based", "settings": "HCT-15, 72 h"}, "[18]": {"assay": "Induction of cell cycle arrest in p53 deficient human HCT116-E6 cells assessed as residual DNA synthesis at 10 uM after 24 hrs by FACS analysis", "assay_type": "functional"}, "[19]": {"test_system": "NHDF", "assay": "Induction of cell cycle arrest in NHDF expressing p53 gene assessed as residual DNA synthesis at 10 uM after 24 hrs by FACS analysis", "assay_type": "cell-based", "settings": "human"}, "[20]": {"test_system": "HCT-15", "assay": "Induction of cell cycle arrest in human HCT15 cells expressing p53 gene assessed as residual DNA synthesis at 10 uM after 24 hrs by FACS analysis", "assay_type": "functional"}, "[21]": {"assay": "Antiproliferative activity against human NCI60 cells"}, "[22]": {"test_system": "HeLa", "assay": "Inhibition of DNA replication in human HeLa cells assessed as increase in replication fork speed per min at 20 uM after 4 hrs by immunofluorescence assay", "assay_type": "functional"}, "[23]": {"test_system": "OVCAR-8", "assay": "Induction of cell cycle arrest in p53 deficient human OVCAR8 cells assessed as residual DNA synthesis at 5 uM after 24hrs by FACS analysis", "assay_type": "functional"}, "[24]": {"test_system": "MCF7", "assay": "Induction of cell cycle arrest in human MCF7 cells expressing p53 gene assessed as accumulation at subG1 phase at 10 uM after 24hrs by FACS analysis", "assay_type": "functional"}, "[25]": {"test_system": "HeLa", "assay": "Inhibition of DNA replication in human HeLa cells assessed as increase in replication fork speed per min at 2 uM after 2 hrs by immunofluorescence assay", "assay_type": "functional"}, "[26]": {"test_system": "NHDF", "assay": "Induction of cell cycle arrest in NHDF expressing p53 gene assessed as residual DNA synthesis at 5 uM after 24 hrs by FACS analysis", "assay_type": "cell-based", "settings": "human"}, "[27]": {"test_system": "OVCAR-8", "assay": "Induction of cell cycle arrest in p53 deficient human OVCAR8 cells assessed as accumulation at subG1 phase at 10 uM after 24 hrs by FACS analysis", "assay_type": "functional"}, "[28]": {"test_system": "HeLa", "assay": "Inhibition of DNA replication in human HeLa cells assessed as increase in replication fork speed per min at 2 uM after 4 hrs by immunofluorescence assay", "assay_type": "functional"}, "[29]": {"assay": "Antiproliferative activity against p53 deficient human A2780/E6 cells after 72 hrs by proliferative assay", "assay_type": "functional, cell-based", "settings": "A2780/E6, 72 h"}, "[30]": {"test_system": "K562", "assay": "Induction of cell cycle arrest in p53 deficient human K562 cells assessed as accumulation at subG1 phase at 5 uM after 24hrs by FACS analysis", "assay_type": "functional"}, "[31]": {"biological_target": "Protein kinase C beta type (Homo sapiens, UniProt P05771)", "sequence (P05771 whole entry)": "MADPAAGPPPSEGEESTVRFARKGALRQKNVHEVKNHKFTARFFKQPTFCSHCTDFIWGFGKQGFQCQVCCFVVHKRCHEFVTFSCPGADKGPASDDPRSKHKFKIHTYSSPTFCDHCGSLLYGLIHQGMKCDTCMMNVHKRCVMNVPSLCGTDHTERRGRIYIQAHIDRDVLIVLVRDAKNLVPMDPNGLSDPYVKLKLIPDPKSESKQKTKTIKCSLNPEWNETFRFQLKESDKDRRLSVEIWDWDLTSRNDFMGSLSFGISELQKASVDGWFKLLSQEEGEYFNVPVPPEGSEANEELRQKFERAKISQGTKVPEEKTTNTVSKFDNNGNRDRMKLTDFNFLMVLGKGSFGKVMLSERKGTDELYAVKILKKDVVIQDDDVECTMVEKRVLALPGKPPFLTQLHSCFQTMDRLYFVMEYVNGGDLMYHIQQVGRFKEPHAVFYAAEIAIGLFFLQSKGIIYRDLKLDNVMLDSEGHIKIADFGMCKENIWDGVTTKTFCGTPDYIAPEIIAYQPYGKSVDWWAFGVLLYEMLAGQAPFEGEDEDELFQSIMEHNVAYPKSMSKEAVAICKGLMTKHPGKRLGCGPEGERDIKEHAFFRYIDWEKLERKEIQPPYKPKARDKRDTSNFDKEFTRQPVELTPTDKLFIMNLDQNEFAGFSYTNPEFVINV", "assay": "Inhibition of PKCbeta"}, "[32]": {"test_system": "HeLa", "assay": "Inhibition of DNA replication in human HeLa cells assessed as increase in replication fork speed per min at 5 uM after 2 hrs by immunofluorescence assay", "assay_type": "functional"}, "[33]": {"test_system": "NHDF", "assay": "Prevention of nocodazole induced mitotic arrest in NHDF after 1 hr by FACS analysis", "assay_type": "cell-based", "settings": "human"}, "[34]": {"test_system": "HeLa", "assay": "Inhibition of DNA replication in human HeLa cells assessed as interorigin distance between homogenous DNA fibers at 2 uM after 4 hrs by immunofluorescence assay", "assay_type": "functional"}, "[35]": {"test_system": "MCF7", "assay": "Induction of cell cycle arrest in human MCF7 cells expressing p53 gene assessed as residual DNA synthesis at 10 uM after 24 hrs by FACS analysis", "assay_type": "functional"}, "[36]": {"biological_target": "Tyrosine-protein kinase ZAP-70 (Homo sapiens, UniProt P43403)", "sequence (P43403 whole entry)": "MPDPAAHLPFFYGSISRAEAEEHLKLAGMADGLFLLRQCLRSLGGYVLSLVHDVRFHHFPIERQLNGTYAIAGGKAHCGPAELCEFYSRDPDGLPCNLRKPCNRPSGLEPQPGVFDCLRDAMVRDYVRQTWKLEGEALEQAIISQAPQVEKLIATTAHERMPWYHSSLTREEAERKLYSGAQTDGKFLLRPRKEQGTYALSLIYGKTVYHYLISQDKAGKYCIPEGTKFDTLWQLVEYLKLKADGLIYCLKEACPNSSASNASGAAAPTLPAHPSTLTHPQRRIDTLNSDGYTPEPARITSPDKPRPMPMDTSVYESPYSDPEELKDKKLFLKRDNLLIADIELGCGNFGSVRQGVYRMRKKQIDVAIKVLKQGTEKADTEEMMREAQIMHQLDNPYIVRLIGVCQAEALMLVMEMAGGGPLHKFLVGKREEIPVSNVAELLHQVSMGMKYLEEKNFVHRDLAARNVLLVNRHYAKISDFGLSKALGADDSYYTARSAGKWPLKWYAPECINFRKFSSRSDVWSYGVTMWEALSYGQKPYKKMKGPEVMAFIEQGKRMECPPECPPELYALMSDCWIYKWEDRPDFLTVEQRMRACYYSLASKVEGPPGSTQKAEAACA", "assay": "Inhibition of ZAP70"}, "[37]": {"test_system": "HeLa", "assay": "Inhibition of DNA synthesis in human HeLa cells assessed as Brd-U uptake at 5 uM after 6 hrs by FACS analysis", "assay_type": "functional", "design": "scale not given: the % may be the effect or the level left"}, "[38]": {"test_system": "HeLa", "assay": "Inhibition of DNA replication in human HeLa cells assessed as interorigin distance between homogenous DNA fibers at 20 uM after 6 hrs by immunofluorescence assay", "assay_type": "functional"}, "[39]": {"test_system": "HCT-116", "assay": "Induction of cell cycle arrest in human HCT116 cells expressing p53 gene assessed as residual DNA synthesis at 5 uM after 24 hrs by FACS analysis", "assay_type": "functional"}, "[40]": {"assay": "Induction of cell cycle arrest in p53 deficient human HCT116-E6 cells assessed as accumulation at subG1 phase at 10 uM after 24hrs by FACS analysis", "assay_type": "functional"}, "[41]": {"test_system": "PC-3", "assay": "Induction of cell cycle arrest in human PC3 cells expressing p53 gene assessed as residual DNA synthesis at 5 uM after 24 hrs by FACS analysis", "assay_type": "functional"}}}
{"smiles": "O=C1NCCc2[nH]c(-c3ccncc3)cc21", "values": [{"measurement": "Activity", "setting": "[1]", "result": ">20", "unit": "%"}, {"measurement": "Activity", "setting": "[2]", "result": "Active"}, {"measurement": "AUC", "setting": "[3]", "result": 47, "unit": "µM·h"}, {"measurement": "Activity", "setting": "[4]", "result": "<3", "unit": "%"}, {"measurement": "Activity", "setting": "[5]", "result": 37, "unit": "%"}, {"measurement": "Activity", "setting": "[6]", "result": 3, "unit": "%"}, {"measurement": "Activity", "setting": "[7]", "result": 3, "unit": "%"}, {"measurement": "Activity", "setting": "[8]", "result": 1.6, "unit": "%"}, {"measurement": "Activity", "setting": "[9]", "result": "<3", "unit": "%"}, {"measurement": "Activity", "setting": "[10]", "result": 3, "unit": "%"}, {"measurement": "Activity", "setting": "[11]", "result": "<3", "unit": "%"}, {"measurement": "Activity", "setting": "[12]", "result": "<3", "unit": "%"}, {"measurement": "Activity", "setting": "[13]", "result": 10, "unit": "%"}, {"measurement": "Activity", "setting": "[14]", "result": 3, "unit": "%"}, {"measurement": "AUC", "setting": "[15]", "result": 71, "unit": "µM·h"}, {"measurement": "Activity", "setting": "[16]", "result": 3, "unit": "%"}, {"measurement": "IC50", "setting": "[17]", "result": 3.81, "unit": "µM"}, {"measurement": "Activity", "setting": "[18]", "result": "<3", "unit": "%"}, {"measurement": "Activity", "setting": "[19]", "result": "< 3", "unit": "%"}, {"measurement": "Activity", "setting": "[20]", "result": "<3", "unit": "%"}, {"measurement": "IC50", "setting": "[21]", "result": 3.1, "unit": "µM"}, {"measurement": "Activity", "setting": "[22]", "result": 2.32, "unit": "kilobase"}, {"measurement": "Activity", "setting": "[23]", "result": "<3", "unit": "%"}, {"measurement": "Activity", "setting": "[24]", "result": "<3", "unit": "%"}, {"measurement": "Activity", "setting": "[25]", "result": 1.8, "unit": "kilobase"}, {"measurement": "Activity", "setting": "[26]", "result": "< 3", "unit": "%"}, {"measurement": "Activity", "setting": "[27]", "result": 3, "unit": "%"}, {"measurement": "Activity", "setting": "[28]", "result": 1.81, "unit": "kilobase"}, {"measurement": "IC50", "setting": "[29]", "result": 1.5, "unit": "µM"}, {"measurement": "Activity", "setting": "[30]", "result": "<3", "unit": "%"}, {"measurement": "IC50", "setting": "[31]", "result": "> 10", "unit": "µM"}, {"measurement": "Activity", "setting": "[32]", "result": 1.86, "unit": "kilobase"}, {"measurement": "Activity", "setting": "[33]", "result": "Not Active"}, {"measurement": "Activity", "setting": "[34]", "result": 236, "unit": "kilobase"}, {"measurement": "Activity", "setting": "[35]", "result": "<3", "unit": "%"}, {"measurement": "IC50", "setting": "[36]", "result": "> 10", "unit": "µM"}, {"measurement": "Activity", "setting": "[37]", "result": 26, "unit": "%"}, {"measurement": "Activity", "setting": "[38]", "result": 287, "unit": "kilobase"}, {"measurement": "Activity", "setting": "[39]", "result": 3, "unit": "%"}, {"measurement": "Activity", "setting": "[40]", "result": 3, "unit": "%"}, {"measurement": "Activity", "setting": "[41]", "result": 3, "unit": "%"}]}
